Assay results published in patent US20010044447A1 (priority 1999, published 2001).

Experiments:
[1] = system: motoneurons (trophic activity produced by spinal astrocytes); assay type: cell-based, Wistar rats; conditions: each product 0.1 μM; astrocyte monolayers exposed 24 hours, conditioned medium taken up 24 hours later; percentage of the number of motoneurons in cultures maintained with BDNF; vehicle alone 44 ± 1.41
Description: The motoneurons are plated, at a density of 2500 cells per 35 mm plate, on culture plates previously coated with laminin/ornithine according to the method of A. G. ESTEVEZ et al., J. Neurosci., 18 (3), 923-931 (1998). The cultures are then maintained in L15 medium (GIBCO BRL) containing sodium bicarbonate (22 mM), conalbumin (0.1 mg/ml), putrescine (0.1 mM), insulin (5 μg/ml), sodium selenite (31 nM), glucose (20 mM), progesterone (21 nM), penicillin (100 IU/ml) and streptomycin (100 μg/ml).
The motoneurons thus obtained are composed of large (25-30 μM) and homogeneous neurones with long branched neurites. More than 70% of the cells are immunoreactive for the p75 neurotrophin receptor and the markers Islet 1/2 for the spinal motoneurons. About 70% of the motoneurons die by apoptosis 24 hours after the plating if the culture is carried out in the absence of a trophic factor. […]
The monolayers of astrocytes show a purity of more than 98% determined by immunoreactivity for the glial fibrillary acidic protein (GFAP). […]
The number of motoneurons is evaluated by counting the labelled cells in a surface area of 0.4-1 cm^2 under a microscope with a 200 times magnification.

[2] = system: motoneurons (trophic activity produced by spinal astrocytes); conditions: H. PELUFFO et al., Neuroscience letters, 228, 207-211 (1997); cited from earlier work

Compound | Motoneuronal survival in % [1] | Production, by the astrocytes, of trophic activity for the motoneurons [2]
CO[C@]12C[C@@H](CO)CN(C)[C@@H]1Cc1cn(C)c3cccc2c13 [lumilysergol, 1,6-dimethyl-8β-hydroxymethyl-10α-methoxyergoline] | 57.4 ± 3.53% | –
CO[C@]12C[C@@H](COC(=O)c3cncc(Br)c3)CN(C)[C@@H]1Cc1cn(C)c3cccc2c13 [nicergoline, (8 p)-10-methoxy-1,6-dimethylergoline-8-methanol-5-bromonicotinate] | 44.5 ± 3.53% | –
Nc1nc2ccc(OC(F)(F)F)cc2s1 [riluzole] | – | stimulated
